Series [1] deals with E. coli. The settings on record: known MIC for the E. coli strain tested; cited from earlier work.
A short description of series [2]: pH of ampicillin solution measured using pH paper. Format: physicochemical. As to conditions: 1 mg/ml.
Series [3] deals with E. coli. Kind of series: Antimicrobial susceptibility testing using PZT piezoelectric plate sensor (width mode resonance peak). Format: cell-based. As to the method: After the PZT sensor was insulated with MPS and coated with APS, it was immersed in 5 ml of DI water to monitor the stability of width mode frequency peak for more than 30 min. If the peak was symmetric and stable, the sensor could be used for the antimicrobial testing.
E. coli suspension in broth was prepared. The concentration was about 10^9 cells/mi. The following procedure was used to replace the broth with DI water, since the ions in the broth might affect the spectrum of the sensor. The suspension was centrifuged at 3000 rpm/min for 5 min and the supernatant was removed. 5 mL of DI water was then added to the tube and the E. coli was re-suspended in DI water.
For the first a few tests (Tests 1-3), a drop of E. coli suspension (20 μl) was put on the sensor surface. After 10 min, the sensor was washed with 400 ml of DI water in a glass beaker 3 times to remove the unbound bacteria. The sensor was then returned to 5 ml of DI water and its width mode peak was monitored. In Test 4, instead of putting a drop of suspension on the sensor, the sensor was soaked in the E. coli suspension for 10 min. The washing step for Test 4 was the same as mentioned above.
After the sensor with E. coli was monitored for 5-10 min, various amounts of ampicillin were added to the DI water every 5 min to determine whether the antibiotics would have an effect on the frequency peak. For Test 1, 1 mg/ml ampicillin solution was made. Different volumes of the ampicillin solution ([…]) were added to the 5 ml of DI water to make the final concentrations of the ampicillin 1, 2, 4, 8, 16, and 32 μg/ml. In Tests 2-4 20 μl of ampicillin solutions of different concentrations (0.25, 0.25, 0.5, 1, 2, and 4 mg/ml) were added each time to make the final concentration of the ampicillin to 1, 2, 4, 8, 16, and 32 μg/ml.
To characterize the roundness of the peak shape, the raw data was smoothed first (as shown in FIG. 15. The amount of variation of the raw data from the smoothed data was calculated as the standard deviation (SD) of the raw data. The width of the top of the peak could be found when the phase angle was 1 times SD (or 2 times SD) smaller than the maximum phase angle in smoothed data. The more round the peak was, the smaller the width of the top of the peak would be. On the other hand, the more flat the peak was, the larger the width of the top of the top of the peak would be.

Each structure is given as a SMILES string. Values after ≈ are worked out from the molar mass of the structure shown.

For `CC1(C)S[C@@H]2[C@H](NC(=O)[C@H](N)c3ccccc3)C(=O)N2[C@H]1C(=O)O` [ampicillin], in series [1], the “minimal inhibitory concentration (MIC)” value is 8 µg/mL (≈ 22.9 µM). For the same molecule, the “pH value of the ampicillin solution” value in series [2] is reported as 3. In addition, in series [3] (Test 1), the “change of SD of peak frequency after adding ampicillin, compared to the SD with E. coli” value is “decreased a lot”. Also, the “ampicillin concentration at which the SD of the peak frequency reached its minimal point” value in series [3] (Test 1 (results similar in Tests 2 and 3), E. coli on sensor in DI water, ampicillin 1-32 μg/ml added every 5 min) was 8 µg/mL. For the same molecule, the “change of width of the top of the peak after adding ampicillin” value was “decreased” in series [3] (Test 4, different sensor, pH adjusted ampicillin, sensor soaked in E. coli suspension) and “started to decrease” in series [3] (Tests 1-3).

These data come from patent US10670566B2, “Rapid antimicrobial susceptibility testing using piezoelectric sensor” (Drexel University, priority 2015, dated 2020).
